Experiment [1] relates to IL-10. The experiment can be described thus: RT-PCR cytokine expression in the aorta: IL-10. Particulars: oral 1 mg/mouse 5 times every other day, 8 weeks after final administration. It is filed as in vivo, mouse. As to the method: (§1) The effect of ALLE, CI-201, its corresponding acetal derivatives Et-acetal and Me-acetal (Compounds IIa and IIb, FIG. 10) and oxLDL on cytokine expression in the target organ—the aorta—was evaluated using RT-PCR as described hereinabove. […] Oral administrations took place 5 times every other day.

In experiment [2] the test system is Apo-E KO mice. The experiment can be described thus: Assessment of atherosclerosis: lesion area in the aortic sinus. It counts as in vivo, mouse.
Experiment [3] has as its system IL-12. The experiment can be described thus: RT-PCR cytokine expression in the aorta: IL-12. It counts as in vivo. The following applies: oral 1 mg/mouse 5 times every other day, 8 weeks after final administration. Here is the method:
as §1

In experiment [4] the test system is IFN-γ. The experiment can be described thus: RT-PCR cytokine expression in the aorta: IFN-γ. It is filed as in vivo. The following applies: oral 1 mg/mouse 5 times every other day, 8 weeks after final administration. As to the method:
as §1

Experiment [5] has as its system Apo-E KO mice. The experiment can be described thus: Aorta lesion (% from total area). It counts as in vivo. The following applies: oral 1 mg/mouse, 5 feedings every other day every 4 weeks over 12 weeks; 24.5 week old mice; End. The text has this: Assessment of Atherosclerosis: Quantification of atherosclerotic fatty streak lesions was done by calculating the lesion size in the aortic sinus as previously described (Paigen et al. Quantitative assessment of atherosclerotic lesions in mice. Atherosclerosis 1987; 68: […]) and by calculating the lesion size in the aorta. Briefly, after perfusion with saline Tris EDTA, the heart and the aorta were removed from the animals and the peripheral fat cleaned carefully. The upper section of the heart was embedded in OCT medium (10.24% w/w polyvinyl alcohol; 4.26% w/w polyethylene glycol; 85.50 w/w nonreactive ingredients) and frozen. […] Sections were evaluated for fatty streak lesions after staining with oil-red O. Lesion areas per section were scored on a grid (Rubin et al. Inhibition of early atherogenesis in transgenic mice by human apoplipoprotein A-I. Nature 1991; 353: 265-267) by an observer counting unidentified, numbered specimens. […]
Their effect on the triglyceride and cholesterol fractions of VLDL was also monitored by FPLC. […]
(§2) Mice were bled prior to feeding (Time 0), after the 2nd set of feeding and at the conclusion of the experiment (End) for determination of lipid profile, lipid fractionation and plasma collection. Atherosclerosis was assessed as described above in the aorta sinus and aorta. […] Weight was recorded every 2 weeks throughout the experiment. […]

A short description of experiment [6]: FPLC analysis of triglyceride and cholesterol content of VLDL. It is filed as in vivo. The following applies: oral 1 mg/mouse, 3 sets over 12 weeks; measured 9 weeks from t=0; FPLC of pooled blood. As to the method:
24.5 weeks old Apo-E KO mice were fed 1 mg/mouse L-ALLE (triangle) (n=11), D-ALLE (inverted triangle) (n=9) or POVPC (square) (n=10) every other day for 5 days, at 4 weeks intervals over a 12 weeks period. Control mice were fed an identical volume (0.2 ml) and regimen of PBS (circle) (n=10). Triglyceride content (Tg, mg/ml) was measured 9 weeks from t=0, by enzymatic colorimetric method in the VLDL fractions following separation of pooled blood samples on FPLC, as described in the materials and methods section that follows.
24.5 weeks old Apo-E KO mice were fed 1 mg/mouse L-ALLE (triangle) (n=11), D-ALLE (inverted triangle) (n=9) or POVPC (square) (n=10) every other day for 5 days, at 4 weeks intervals over a 12 weeks period. Control mice were fed an identical volume (0.2 ml) and regimen of PBS (circle) (n=10). Cholesterol content (Cholesterol, mg/ml) was measured 9 weeks from t=0, by enzymatic colorimetric method in the VLDL fractions following separation of pooled blood samples on FPLC, as described in the materials and methods section that follows.
FPLC Analysis: Fast Protein Liquid Chromatography analysis of cholesterol and lipid content of lipoproteins was performed using Superose 6 HR 10/30 column (Amersham Pharmacia Biotech, Inc, Peapack, N.J.) on a FPLC system (Pharmacia LKB. FRAC-200, Pharmacia, Peapack, N.J.). A minimum sample volume of 300 μl (blood pooled from 3 mice was diluted 1:2 and filtered before loading) was required in the sampling vial for the automatic sampler to completely fill the 200 μl sample loop. Fractions 10-40 were collected, each fraction contained 0.5 ml. A 250 μl sample from each fraction was mixed with freshly prepared cholesterol reagent or triglyceride reagent respectively, incubated for 5 minutes at 37° C. and assayed spectrophotometrically at 500 nm.
Their effect on the triglyceride and cholesterol fractions of VLDL was also monitored by FPLC. […] male, 24.5 week old Apo-E KO mice were divided into 5 groups. In group A (n=11) mice were fed with 1 mg/mouse L-ALLE suspended in 0.2 ml PBS, administered by gavage, as described above, every other day for 5 days. In group B (n=9) mice were fed with 1 mg/mouse D-ALLE suspended in 0.2 ml PBS, administered per os, as described above, every other day for 5 days. In group C (n=10) mice were fed with 1 mg/mouse POVPC suspended in 0.2 ml PBS, administered by gavage, as described above, every other day for 5 days. […]
as §2

The subject of experiment [7] is IL12p40. The experiment can be described thus: p40 production by activated BMDC's (ELISA). The following applies: BMDC's, 1 h pre-incubation, PGN 10 μg/ml, 24 hours; preliminary results. It counts as cell-based, mouse. On the technique in general: ELISA stands for enzyme-linked immunosorbent assay.

2,5′-Aldehyde Lecithin Ether [ALLE]: the “IL-10 expression in the aorta versus PBS” value in experiment [1] was “elevated levels”. Besides, in experiment [2] (ALLE by both oral (1 mg/mouse) and nasal (10 μg/mouse) administrations), the protection from atherogenesis entry is “approximately 50%”. Also, in experiment [2] (i.p. immunization with ALLE (mixture of D- and L-)), the “protection from atherosclerotic lesion formation” value is recorded as > 50%. In addition, the Lesion size in experiment [2] (i.p. immunization x4 every 2 weeks (ALLE 150 μg/mouse coupled to PPD; PPD alone), 4.5 weeks post 4th immunization) is recorded as 101000 ± 8276 μm^2; in experiment [2] (nasal 10 μg/mouse L-ALLE every other day for 3 days, 8 weeks after last exposure), 82708 ± 10986 μm^2; in experiment [2] (oral 10 μg/mouse L-ALLE+D-ALLE every other day for 5 days, 8 weeks after last feeding), 103889 ± 14320 μm^2; in experiment [2] (oral 1 mg/mouse L-ALLE every other day for 5 days, 8 weeks after last feeding), 76944 ± 17072 μm^2; in experiment [2] (oral 1 mg/mouse L-ALLE+D-ALLE every other day for 5 days, 8 weeks after last feeding), 85278 ± 11633 μm^2. The “atherogenesis in Apo-E KO mice, oral administration (summary of earlier examples)” value in experiment [2] (oral administration) is on record as “substantially inhibited atherogenesis”. Also, the protection from atherosclerosis in experiment [2] (oral administration of ALLE, 10 μg-1 mg/mouse) is > 50%. Besides, the “IL-12 expression in the aorta versus PBS” value in experiment [3] was “reduced levels”. The “IFN-γ expression in the aorta versus PBS” value in experiment [4] was “Reduced expression levels”.

For `C=CCCCCO[C@H](COCCCCCCCCCCCCCCCC)COP(=O)([O-])OCC[N+](C)(C)C` [Compound V, 1-Hexadecyl-2-(5′-hexenyl)-sn-glycero-3-phosphocholine], the atherogenesis progression entry in experiment [2] (oral 0.1 μg/dose, 3 monthly sets of 5 administrations) is on record as “did not effect atherogenesis progression”. The Sinus Lesion in experiment [2] (oral 0.1 μg/dose, 3 monthly sets of 5 administrations, 12 weeks, 23-26 weeks old mice, no statistical difference to PBS) was 238000 ± 32200 µm²; in experiment [2] (oral 0.2 mg/mouse every other day for 5 days, 8 weeks after last administration) it was 334622 ± 26100 μm^2; in experiment [2] (oral 1 mg/mouse every other day for 5 days, 8 weeks after last administration), 361166 ± 24068 μm^2; in experiment [2] (oral 5 mg/mouse every other day for 5 days, 8 weeks after last administration), 307291 ± 22689 μm^2. The effect on atherogenesis result in experiment [2] (oral 0.2-5 mg/mouse every other day for 5 days) is on record as “no effect”.

Take `CCCCCCCCCCCCCCCCOC[C@H](COP(=O)([O-])OCC[N+](C)(C)C)OCCCCC=O` [D-ALLE, 1-hexadecyl-2-(5′-oxo-pentanyl)-sn-glycero-3-phosphocholine]: in experiment [2] (oral 1 mg/mouse, 5 feedings every other day every 4 weeks over 12 weeks, 24.5 week old mice, End (12 weeks after first feeding)), the “Sinus Lesion” value was 245938 ± 20474 μm^2. For the same molecule, in experiment [2] (oral 1 mg/mouse, late stage, compared with lesion scores at 24.5 weeks), the “protection from atheromatous progression” value is listed as “nearly complete protection”. For the same molecule, the “Aorta lesion (% from total area)” value in experiment [5] came out at 4.5 % from total area. In experiment [6], the “cholesterol content of VLDL” value is “reduction” and the “triglyceride content of VLDL” value is on record as “reduction”.

With `CCCCCCCCCCCCCCCCOC[C@H](COP(=O)([O-])OCC[N+](C)(C)C)OC(=O)CCC` [PAF2C, 1-O-Hexadecyl-2-O-Butyroyl-sn-Glycero-3-Phosphocholine, reference compound], the “p40 production / p40 inhibition, structure-function analysis” value (“p40 production / p40 inhibition” for short) in experiment [7] was “efficient in p40 inhibition”.

With `CCCCCCCCCCCCCCCCOC[C@H](COP(=O)([O-])OCC[N+](C)(C)C)OC(C)=O` [PAF, 1-O-Hexadecyl-2-Acetoyl-sn-Glycero-3-Phosphocholine, reference compound], in experiment [7], the “p40 production / p40 inhibition” value is given as “efficient in p40 inhibition”.

`CCCCCCCCCCCCCCCCOCC(COP(=O)([O-])OCC[N+](C)(C)C)OCCCCC(=O)OC` (stereo not shown) [methyl ester of CI-201]: in experiment [7], the “p40 production / p40 inhibition” value is on record as “restored p40 production”.

Consider `CCCCCCCCCCCCCCCCOCC(CO)OCCCCC(=O)O` (stereo not shown) [non phosphorylated metabolite of CI-201], for which the “p40 production / p40 inhibition” value in experiment [7] was “restored p40 production”.

Regarding `CCCCCCCCCCCCCCCCOC[C@H](COP(=O)(O)OCCN)OCCCCC(=O)O` [phosphoethanol amine, 1-O-Hexadecyl-2-(4′-carboxybutyl)-sn-Glycero-3-Phosphoethanolamine], the “p40 production / p40 inhibition” value in experiment [7] was “did not alter the molecule's p40 inhibitory effect”.

For the origin of these results see patent US8501715B2, “Oxidized lipids and uses thereof in the treatment of inflammatory diseases and disorders” (Vascular Biogenics Ltd., priority 2003, dated 2013).
